Experimental data from patent US20210037830A1, “PHYTOTOXIC MICRONUTRIENT COMBINATIONS FOR SELECTIVE CONTROL OF INVASIVE PLANT SPECIES” (Edaphix, LLC, priority 2019, published 2021).
Where two headings read alike, the source gives them in different places.

What was measured:
humans [1] = conditions: cited from earlier work
French marigold = conditions: in vivo; cited from earlier work
humans [2] = conditions: 2005 carcinogen assessment guidelines; cited from earlier work
[3] = system: seed geranium (Pelargonium×hortorum); conditions: in combination with nitrogen, phosphorus, and potassium; cited from earlier work
chlorophyllitic plants [4] = assay: Photosynthetic disruption by glyphosate; format: in vivo
Procedure: Extensive research has documented that plants are often sensitive to relatively minute concentrations or exposures to unique synthetic compounds or combinations of naturally occurring elements, including micronutrients. For example, glyphosate (aka ROUNDUP®, a synthetic Monsanto/Bayer product) is effective at causing photosynthetic disruption in chlorophyllitic plants at an application rate of as little as 0.75 pounds active ingredient per acre, which equates to only approximately 8 mg/square foot of application, equivalent to approximately 14 ppm application rate. The American Phytopathological Society (APS) reported that micronutrients are generally toxic when present in high amounts, although ‘high concentrations’ are not clearly defined, and little toxicity have been reported at exceptionally low micronutrient concentrations. This occurrence is known as micronutrient toxicity syndrome (MTS). […] In addition, plants can vary considerably from species to species in their susceptibility to nutrient toxicities. For example, Lee and others (1996) reported inducing seed geranium (Pelargonium×hortorum) micronutrient toxicity symptoms by applying nutrient solutions containing 0.5 mg/L B, Cu, or Zn, or as little as 0.25 mg/L Mo, in combination with nitrogen, phosphorus, and potassium. […]

chlorophyllitic plants [5] = conditions: in vivo; cited from earlier work

For `OB(O)O` [boric acid], the endocrine disruptor classification (humans [1]) is given as “neither classified as endocrine disruptors”.

In the case of `[Cu]` [copper], the “concentration inducing micro-nutrient toxicity” value (French marigold) is listed as 4000 ng/mL.

For `[B]` [boron], the endocrine disruptor classification (humans [1]) is given as “neither classified as endocrine disruptors” and the “concentration inducing micro-nutrient toxicity” value (French marigold) is given as 500 ng/mL.

For borate salts, the endocrine disruptor classification (humans [1]) is listed as “neither classified as endocrine disruptors” and the “U.S. EPA carcinogenicity classification” value (humans [2]) is listed as “not likely to be carcinogenic to humans”.

In the case of `[Mn+2]` [manganese], the “concentration inducing micro-nutrient toxicity” value (French marigold) is given as 1000 ng/mL.

For `[Mo]` [molybdenum], the “concentration inducing micro-nutrient toxicity” value (French marigold) is given as 5000 ng/mL.

For `[Zn]` [Zn, zinc], the “nutrient solution concentration inducing micronutrient toxicity symptoms” value [3] is given as 0.5 mg/L.

For `O=C(O)CNCP(=O)(O)O` [glyphosate], the “application rate effective at causing photosynthetic disruption” value (“application rate effective” for short) (chlorophyllitic plants [4]; equates to the rate per acre) is listed as “approximately 8 mg/square foot”, the “application rate effective” value (chlorophyllitic plants [4]; equivalent application rate) is listed as “approximately 14 ppm” and the “application rate effective” value (chlorophyllitic plants [5]) is listed as 0.75 pounds active ingredient per acre.
